Source: ChEMBL document CHEMBL3784957, “Patterns of biofilm structure and formation kinetics among Acinetobacter baumannii clinical isolates with different antibiotic resistance profiles” (2016)
≈ marks a conversion by molar mass, not a printed value.

Tests used:
Assay type in all cases: functional
[1] = test system: Acinetobacter baumannii; test: Antimicrobial activity against Acinetobacter baumannii isolate 45 by broth microdilution assay
[2] = test system: Acinetobacter baumannii; test: Antimicrobial activity against Acinetobacter baumannii isolate 35 by broth microdilution assay
[3] = test system: Acinetobacter baumannii; test: Antimicrobial activity against Acinetobacter baumannii isolate 9 by broth microdilution assay
[4] = test system: Acinetobacter baumannii; test: Antimicrobial activity against Acinetobacter baumannii isolate 20 by broth microdilution assay
[5] = test system: Acinetobacter baumannii; test: Antimicrobial activity against Acinetobacter baumannii isolate 3 by broth microdilution assay
[6] = test system: Acinetobacter baumannii; test: Antimicrobial activity against Acinetobacter baumannii isolate 26 by broth microdilution assay
[7] = test system: Acinetobacter baumannii; test: Antimicrobial activity against Acinetobacter baumannii isolate 59 by broth microdilution assay
[8] = test system: Acinetobacter baumannii; test: Antimicrobial activity against Acinetobacter baumannii isolate 12 by broth microdilution assay
[9] = test system: Acinetobacter baumannii; test: Antimicrobial activity against Acinetobacter baumannii isolate 38 by broth microdilution assay
[10] = test system: Acinetobacter baumannii; test: Antimicrobial activity against Acinetobacter baumannii isolate 15 by broth microdilution assay
[11] = test system: Acinetobacter baumannii; test: Antimicrobial activity against Acinetobacter baumannii isolate 30 by broth microdilution assay
[12] = test system: Acinetobacter baumannii; test: Antimicrobial activity against Acinetobacter baumannii isolate 52 by broth microdilution assay

Compound	MIC [1] [µg/mL]	MIC [2] [µg/mL]	MIC [3] [µg/mL]	MIC [4] [µg/mL]	MIC [5] [µg/mL]	MIC [6] [µg/mL]	MIC [7] [µg/mL]	MIC [8] [µg/mL]	MIC [9] [µg/mL]	MIC [10] [µg/mL]	MIC [11] [µg/mL]	MIC [12] [µg/mL]
CC1(C)S[C@@H]2[C@H](NC(=O)[C@H](C(=O)O)c3ccsc3)C(=O)N2[C@H]1C(=O)O [TICARCILLIN]	> 64	> 64	> 64	> 64	> 64	32 (≈ 83.2 µM)	≤ 8	64 (≈ 166 µM)	≤ 8	> 64	> 64	> 64
CC(C)(O/N=C(\C(=O)N[C@@H]1C(=O)N2C(C(=O)[O-])=C(C[n+]3ccccc3)CS[C@H]12)c1csc(N)n1)C(=O)O [CEFTAZIDIME]	> 32	> 16	> 32	> 32	> 32	> 32	2 (≈ 3.66 µM)	16 (≈ 29.3 µM)	4 (≈ 7.32 µM)	> 32	16 (≈ 29.3 µM)	> 32
CCN1CCN(C(=O)N[C@@H](C(=O)N[C@@H]2C(=O)N3[C@@H]2SC(C)(C)[C@@H]3C(=O)O)c2ccccc2)C(=O)C1=O [PIPERACILLIN]	> 64	> 64	> 64	> 64	> 64	> 64	≤ 8	> 64	≤ 8	> 64	> 64	> 64
C[C@H]1COc2c(N3CCN(C)CC3)c(F)cc3c(=O)c(C(=O)O)cn1c23.C[C@H]1COc2c(N3CCN(C)CC3)c(F)cc3c(=O)c(C(=O)O)cn1c23.O [LEVOFLOXACIN]	> 4	> 4	> 4	> 4	> 4	> 4	≤ 0.12	> 4	≤ 0.12	> 4	> 4	> 4
NC[C@H]1O[C@H](O[C@H]2[C@H](O)[C@@H](O[C@H]3O[C@H](CO)[C@@H](O)[C@H](N)[C@H]3O)[C@H](N)C[C@@H]2N)[C@H](N)C[C@@H]1O [TOBRAMYCIN]	8 (≈ 17.1 µM)	> 8	> 8	> 8	≤ 1	≤ 1	≤ 1	> 8	> 8	> 8	8 (≈ 17.1 µM)	≤ 1
CO/N=C(\C(=O)N[C@@H]1C(=O)N2C(C(=O)[O-])=C(C[N+]3(C)CCCC3)CS[C@H]12)c1csc(N)n1 [CEFEPIME]	8 (≈ 16.6 µM)	8 (≈ 16.6 µM)	32 (≈ 66.6 µM)	> 32	16 (≈ 33.3 µM)	16 (≈ 33.3 µM)	2 (≈ 4.16 µM)	32 (≈ 66.6 µM)	2 (≈ 4.16 µM)	> 32	16 (≈ 33.3 µM)	> 32
C[C@@H](O)[C@H]1C(=O)N2C(C(=O)O)=C(S[C@@H]3CN[C@H](C(=O)N(C)C)C3)[C@H](C)[C@H]12 [MEROPENEM]	8 (≈ 20.9 µM)	8 (≈ 20.9 µM)	> 8	> 8	> 8	1 (≈ 2.61 µM)	1 (≈ 2.61 µM)	> 8	≤ 0.25	> 8	2 (≈ 5.22 µM)	> 8
COLISTIN	8	< 0.5	< 0.5	< 0.5	< 0.5	< 0.5	< 0.5	16	< 0.5	< 0.5	< 0.5	< 0.5
NCC[C@H](O)C(=O)N[C@@H]1C[C@H](N)[C@@H](O[C@H]2O[C@H](CN)[C@@H](O)[C@H](O)[C@H]2O)[C@H](O)[C@H]1O[C@H]1O[C@H](CO)[C@@H](O)[C@H](N)[C@H]1O [AMIKACIN]	≤ 2	≤ 2	> 32	> 32	≤ 2	≤ 2	≤ 2	8 (≈ 13.7 µM)	≤ 2	16 (≈ 27.3 µM)	4 (≈ 6.83 µM)	≤ 2
O=C(O)c1cn(C2CC2)c2cc(N3CCNCC3)c(F)cc2c1=O [CIPROFLOXACIN]	> 2	> 2	> 2	> 2	> 2	> 2	≤ 0.25	> 2	≤ 0.25	> 2	> 2	> 2
GENTAMICIN	> 8	> 8	> 8	> 8	< 1	< 1	< 1	> 8	< 1	> 8	> 8	4
C[C@@H](O)[C@H]1C(=O)N2C(C(=O)O)=C(SCCNC=N)C[C@H]12 [IMIPENEM ANHYDROUS]	> 8	> 8	> 8	> 8	> 8	≤ 1	≤ 1	> 8	≤ 1	> 8	2 (≈ 6.68 µM)	> 8
CN(C)c1ccc(O)c2c1C[C@H]1C[C@H]3[C@H](N(C)C)C(O)=C(C(N)=O)C(=O)[C@@]3(O)C(O)=C1C2=O [MINOCYCLINE]	2 (≈ 4.37 µM)	≤ 1	8 (≈ 17.5 µM)	8 (≈ 17.5 µM)	2 (≈ 4.37 µM)	2 (≈ 4.37 µM)	≤ 1	≤ 1	≤ 1	≤ 1	≤ 1	≤ 1
